Results taken from US20230201217A1 (priority 2019, published 2023).
Several values for one entry are separate records, joined by “and”; a condition that tells them apart may be missing. Equal values may be shown once.

Legend:
mice = assay: Single-dose oral toxicity; type: in vivo, mouse
Protocol: Single doses up to 300-400 mg/kg and 800 mg/kg appeared to be generally well tolerated in monkeys and rats, respectively (one monkey treated with 400 mg/kg died in the 2-week GLP study on Day 1 of dosing). […] In mice, mortality was consistently seen following single doses 150 mg/kg. Preliminary 5-day repeat-dose range-finding studies were conducted in mice, rats and monkeys. The definitive 14-day studies in mouse and monkey yielded generally similar results to those observed in the 5-day studies.

CD-1 mice = assay: 14-day oral gavage GLP toxicity study in CD-1 mice; type: in vivo, mouse
Protocol: All test article-treated animals underwent up-titration of dosage levels prior to reaching the maximum daily dose, which was administered for 14 consecutive days. […] The dose volume was 10 mL/kg for all groups. Groups 1 and 4 each consisted of 25 animals/sex and Groups 2-3 each consisted of 20 animals for each sex. Following 14 days of dose administration, 15 mice/sex/toxicology group were euthanized; the remaining 5, (10 for the control and high dose group) mice/sex/toxicology group were euthanized following a 14-day nondosing (recovery) period. Following the final blood collection (study day 13), all toxicokinetic animals (from a satellite group of 18 animals/sex/dose level) were euthanized.
For toxicology assessment, all animals were observed twice daily for mortality and moribundity. Clinical observations were recorded daily, and detailed physical examinations were conducted weekly. Body weights and food consumption were recorded twice weekly. Body temperature was recorded prior to dosing and following dosing at the time that post-dosing clinical observations were conducted. Functional observational battery (FOB) data were recorded for all animals near the start of the treatment period, near the end of the treatment period, and near the end of the recovery period. Ophthalmic examinations were performed during pretest and near the end of the dosing period. At the primary necropsy 10 animals/sex/group and at the recovery necropsy 5 animals/sex/group, were selected for complete necropsies, clinical pathology assessment (hematology and serum chemistry), organ weight collection, and microscopic examination of a full list of tissues. At each termination interval, 5 animals/sex/group were assigned for neuropathology assessments that involved perfusion fixation, comprehensive sectioning of the brain and collection of selected peripheral nerves, and the employment of special stains used to detect subtle neuronal injury.

male cynomolgus monkeys = assay: Cardiovascular and respiratory radiotelemetry in conscious cynomolgus monkeys; type: in vivo, cynomolgus monkey
Protocol: Clinical observations were performed at approximately 4 and 24 hours post-dosing.

[1] = tested on: rats trained to self-administer cocaine; assay: Rat cocaine self-administration, oral 18-MC HCl; conditions: for inhibition of cocaine self-administration: 1 hour post-dose
Protocol: The relationship between in vivo efficacy and plasma drug exposure was investigated in rats trained to self-administer cocaine. […] Blood samples were collected immediately after the one hour session in the operant chamber from the arterial catheter. […] Significant differences from vehicle-treated animals were either p<0.01 (indicated as **) or p<0.05 (indicated as *).
Significant difference from vehicle-treated group (0 mg/kg on X axis) was p<0.01 (indicated as **) by one-way ANOVA.
Significant difference from baseline responding was p<0.01 (as indicated by **). […] Blood samples were collected from animals immediately after their cocaine self-administration at approximately 2 hours post dose in the first day of dosing (Day 0), and the last day of dosing (Day 4).

plasma protein [2] = assay: Plasma protein binding; type: in vitro ADME, Monkey
Description: (§1) There is no information on the protein binding of any of the metabolites.

hERG potassium channel = target: T1, hERG potassium channel (Homo sapiens, UniProt Q12809); assay: In vitro hERG channel inhibition assay, stably transfected CHO cells, voltage clamp; type: cell-based; conditions: average of 3 recordings; read-out: IC50, hERG current inhibition
T1 construct: expressed in transfected cells; host or cells: CHO, stably transfected
Protocol: The potential for 18-MC to inhibit the hERG potassium channel was evaluated in a stably transfected Chinese Hamster Ovary (CHO) cell line expressing hERG mRNA (FIG. 12). […] Cells were voltage clamped at a holding potential of −80 mV. The hERG current was then activated by a depolarizing step ([…] for 300 ms) and repeated every 12 s. 18-MC was prepared from 10 mM methanol stock solutions. The hERG current inhibition was calculated from the average of 3 separate recordings.

CYP2C8 = CYP2C8 (Homo sapiens, UniProt P10632); conditions: recombinant enzyme
Protocol: (§2) Control incubations were performed for each assay with appropriate positive inhibitory controls.

plasma protein [3] = assay: Plasma protein binding; type: in vitro ADME, Human
Description: as §1

plasma protein [4] = assay: Plasma protein binding; type: in vitro ADME, Mouse
Description: as §1

healthy volunteers = assay: Phase 1 first-in-human study, safety and tolerability; type: in vivo; set-up: key to AE Urinary tract infection (subject A1): Study Drug related / AE Retro-orbital headache (subject A2): Study Drug related / AE Hot coffee burn in hand and right forearm (subject A3): Study Drug related / AE Dry cough (subject A4): Study Drug related / AE Body pain (subject A5): Study Drug related / AE Occipital and frontal headache (subject A6): Study Drug related / AE Nausea (subject A1): Study Drug related / AE Arterial Hypotension (subject A1): Study Drug related / AE Pain - submandibular lymph node (subject A1): Study Drug related: 1 Not related; 2 Possible; 3 Probable
Protocol: None discontinued the study.
Safety was monitored by reported adverse events, hematology, serum chemistries (including electrolytes, renal and liver function, urinalysis, ECG and vital signs. In addition, a neurological examination (mini-mental status exam) including assessment for abnormal eye movement, nystagmus, tremors, reflexes, upper and lower extremity strength, distal sensor perception, intention tremor, the Romberg test, excessive somnolence and mental status were performed.

CYP2E1 = CYP2E1 (Homo sapiens, UniProt P05181); conditions: recombinant enzyme
Protocol: as §2

CYP1A2 = CYP1A2 (Homo sapiens, UniProt P05177); conditions: recombinant enzyme
Chain of CYP1A2 (P05177 whole entry): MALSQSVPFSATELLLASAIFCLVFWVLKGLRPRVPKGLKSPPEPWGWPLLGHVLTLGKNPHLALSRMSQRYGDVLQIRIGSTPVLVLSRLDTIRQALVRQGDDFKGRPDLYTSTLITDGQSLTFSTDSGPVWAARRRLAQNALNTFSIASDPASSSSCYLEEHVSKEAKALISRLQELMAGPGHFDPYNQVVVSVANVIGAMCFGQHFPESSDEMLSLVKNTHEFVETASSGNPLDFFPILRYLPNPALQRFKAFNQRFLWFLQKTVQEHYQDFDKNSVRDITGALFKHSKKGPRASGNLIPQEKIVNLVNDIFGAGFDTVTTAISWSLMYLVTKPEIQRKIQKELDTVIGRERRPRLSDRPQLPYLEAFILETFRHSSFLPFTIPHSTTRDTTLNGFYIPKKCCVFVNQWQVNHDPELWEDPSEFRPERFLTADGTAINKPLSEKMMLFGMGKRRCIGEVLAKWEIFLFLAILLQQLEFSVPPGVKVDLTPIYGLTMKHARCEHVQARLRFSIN
Protocol: as §2

T1 sequence (Q12809 whole entry): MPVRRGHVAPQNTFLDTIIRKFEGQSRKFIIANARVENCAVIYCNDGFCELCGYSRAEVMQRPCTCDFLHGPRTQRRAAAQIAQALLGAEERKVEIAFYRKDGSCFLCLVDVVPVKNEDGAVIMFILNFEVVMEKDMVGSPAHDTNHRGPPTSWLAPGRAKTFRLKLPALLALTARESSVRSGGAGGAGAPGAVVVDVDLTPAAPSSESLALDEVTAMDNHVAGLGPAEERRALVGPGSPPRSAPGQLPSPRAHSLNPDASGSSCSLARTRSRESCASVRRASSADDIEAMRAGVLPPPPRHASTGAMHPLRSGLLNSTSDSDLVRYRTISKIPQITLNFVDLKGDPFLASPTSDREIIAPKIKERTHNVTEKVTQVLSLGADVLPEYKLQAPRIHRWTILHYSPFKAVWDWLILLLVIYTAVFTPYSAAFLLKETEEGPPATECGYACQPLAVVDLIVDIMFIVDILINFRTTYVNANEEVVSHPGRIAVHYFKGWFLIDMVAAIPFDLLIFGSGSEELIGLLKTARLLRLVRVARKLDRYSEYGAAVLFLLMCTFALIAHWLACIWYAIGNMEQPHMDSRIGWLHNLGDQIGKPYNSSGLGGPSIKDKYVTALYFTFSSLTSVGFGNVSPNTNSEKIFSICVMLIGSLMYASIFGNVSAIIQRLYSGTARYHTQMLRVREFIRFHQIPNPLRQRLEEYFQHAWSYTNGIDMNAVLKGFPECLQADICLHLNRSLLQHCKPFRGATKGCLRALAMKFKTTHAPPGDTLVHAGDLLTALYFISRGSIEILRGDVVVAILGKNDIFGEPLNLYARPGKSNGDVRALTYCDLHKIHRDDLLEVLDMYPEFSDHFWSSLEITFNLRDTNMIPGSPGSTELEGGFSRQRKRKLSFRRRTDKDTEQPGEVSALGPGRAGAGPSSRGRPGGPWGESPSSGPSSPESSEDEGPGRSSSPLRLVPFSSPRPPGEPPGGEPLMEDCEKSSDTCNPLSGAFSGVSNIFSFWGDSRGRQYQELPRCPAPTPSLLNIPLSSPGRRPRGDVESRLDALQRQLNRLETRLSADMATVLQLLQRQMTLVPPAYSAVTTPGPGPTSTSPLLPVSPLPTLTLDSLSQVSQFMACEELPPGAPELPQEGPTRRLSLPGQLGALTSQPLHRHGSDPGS
Chain of CYP2E1 (P05181 whole entry): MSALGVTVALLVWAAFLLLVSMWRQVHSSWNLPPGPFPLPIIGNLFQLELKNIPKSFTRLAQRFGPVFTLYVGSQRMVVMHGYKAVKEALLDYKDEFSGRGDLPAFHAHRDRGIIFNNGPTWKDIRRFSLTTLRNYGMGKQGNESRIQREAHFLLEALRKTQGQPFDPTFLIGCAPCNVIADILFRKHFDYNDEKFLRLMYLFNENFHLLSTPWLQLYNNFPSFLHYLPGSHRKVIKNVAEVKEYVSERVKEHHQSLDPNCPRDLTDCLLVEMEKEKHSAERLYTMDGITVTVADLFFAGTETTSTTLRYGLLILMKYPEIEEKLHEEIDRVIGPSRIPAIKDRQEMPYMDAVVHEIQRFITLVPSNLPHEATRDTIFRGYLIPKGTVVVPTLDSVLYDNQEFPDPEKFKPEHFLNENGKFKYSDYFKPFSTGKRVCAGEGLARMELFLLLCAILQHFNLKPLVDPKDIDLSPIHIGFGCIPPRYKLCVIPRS
Chain of CYP2C8 (P10632 whole entry): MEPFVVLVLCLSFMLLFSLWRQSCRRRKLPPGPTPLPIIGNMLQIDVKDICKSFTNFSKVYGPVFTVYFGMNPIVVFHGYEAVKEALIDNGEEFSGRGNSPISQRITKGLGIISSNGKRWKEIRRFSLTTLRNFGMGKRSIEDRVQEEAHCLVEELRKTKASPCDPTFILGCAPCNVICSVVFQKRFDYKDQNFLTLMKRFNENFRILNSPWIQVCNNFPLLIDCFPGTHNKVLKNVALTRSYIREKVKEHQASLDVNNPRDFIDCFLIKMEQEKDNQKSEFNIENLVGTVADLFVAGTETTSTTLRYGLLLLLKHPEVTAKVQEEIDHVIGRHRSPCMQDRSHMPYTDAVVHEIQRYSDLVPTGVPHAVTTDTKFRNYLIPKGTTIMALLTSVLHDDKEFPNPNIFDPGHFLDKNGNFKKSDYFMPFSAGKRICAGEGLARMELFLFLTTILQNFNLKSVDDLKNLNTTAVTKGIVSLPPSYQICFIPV

In the case of `COCCC1CC2CN3CCc4c([nH]c5ccccc45)C(C(=O)OC)(C2)C13.Cl` (stereo not drawn) [18-MC HCl, 18-Methoxycoronaridine hydrochloride], the “single doses with mortality consistently seen” value (mice) is reported as 150 mg/kg, the mortality (CD-1 mice; 100 mg/kg/day group, Days −1 and 12) is reported as “two male mice in the 100 mg/kg/day group were found dead” and the “HED of well tolerated dose” value (CD-1 mice; female mice, 100 mg/kg/day) is reported as 8 mg/kg/day. For the same compound, the NOAEL (CD-1 mice; females) was 100 mg/kg/day, the “HED of well tolerated dose” value (CD-1 mice; male mice, 50 mg/kg/day) was 4 mg/kg/day and the NOAEL (CD-1 mice; males) was 50 mg/kg/day. The “neurobehavioral findings, Functional Observational Battery” value (CD-1 mice; up to 100 mg/kg/day, except non-adverse decreased body temperature) was “no noted neurobehavioral findings”, the “cardiovascular parameters, body temperature, respiratory parameters” value (male cynomolgus monkeys; 30, 90, or 270 mg/kg single dose) was “did not affect” and the “NOEL on the cardiovascular and respiratory systems” value (male cynomolgus monkeys; single dose, highest dose tested) was 270 mg/kg. For the same compound, the “inhibition of cocaine self-administration” value ([1]; 120 mg/kg p.o.) was 50%, the “inhibition of cocaine self-administration on repeated dosing” value ([1]; 600 mg/kg/day, 5 consecutive days) was “did not result in greater inhibition” and the “inhibition of cocaine self-administration” value ([1]; 800 mg/kg p.o.) was 82%.
In the case of `COCC[C@H]1CC2CN3CCc4c([nH]c5ccccc45)[C@](C(=O)OC)(C2)[C@H]13` [18-MC, 18-methoxycoronaridine], the “% Bound Mean ± SD” value (plasma protein [2]; 200 ng/mL) is reported as 98.4 ± 0.643%, the “% Bound Mean ± SD” value (plasma protein [2]; 600 ng/mL) is reported as 97.7 ± 0.100% and the “% Bound Mean ± SD” value (plasma protein [2]; 5,000 ng/mL) is reported as 97.2 ± 0.100%. For the same compound, the “Average % Bound Mean ± SD” value (plasma protein [2]; average of 3 concentrations) was 97.8 ± 0.603%, the IC50 (hERG potassium channel) was 1.46 µM and 1.6 µM and the IC50 (CYP2C8) was 19 µM. The “% Bound Mean ± SD” value (plasma protein [3]; 200 ng/mL) was 96.8 ± 0.321%, the “% Bound Mean ± SD” value (plasma protein [3]; 600 ng/mL) was 97.6 ± 0.153% and the “% Bound Mean ± SD” value (plasma protein [3]; 5,000 ng/mL) was 95.2 ± 0.473%. The “Average % Bound Mean ± SD” value (plasma protein [3]; average of 3 concentrations) was 96.5 ± 1.22%, the “% Bound Mean ± SD” value (plasma protein [4]; 200 ng/mL) was 97.0 ± 0.208% and the “% Bound Mean ± SD” value (plasma protein [4]; 600 ng/mL) was 97.1 ± 0.058%. For the same compound, the “% Bound Mean ± SD” value (plasma protein [4]; 5,000 ng/mL) was 96.5 ± 0.071%, the “Average % Bound Mean ± SD” value (plasma protein [4]; average of 3 concentrations) was 96.9 ± 0.321% and the serious adverse events (healthy volunteers; 20 mg single dose, 4 mg twice) was “No serious adverse events occurred”. For the same compound, the “dose at which safe in healthy volunteers” value (healthy volunteers; FIH study) was “up to 20 mg”, the “AE Arterial Hypotension (subject A1): Severity” value (healthy volunteers; day noted 1) was 1 and the “AE Arterial Hypotension (subject A1): Study Drug related” value (healthy volunteers; day noted 1) was 2. For the same compound, the “AE Nausea (subject A1): Severity” value (healthy volunteers; day noted 1) was 1, the “AE Nausea (subject A1): Study Drug related” value (healthy volunteers; day noted 1) was 2 and the “AE Pain - submandibular lymph node (subject A1): Severity” value (healthy volunteers; day noted 1) was 1. The “AE Pain - submandibular lymph node (subject A1): Study Drug related” value (healthy volunteers; day noted 1) was 2, the “AE Retro-orbital headache (subject A2): Severity” value (healthy volunteers; day noted 1) was 1 and the “AE Retro-orbital headache (subject A2): Study Drug related” value (healthy volunteers; day noted 1) was 2. For the same compound, the “AE Urinary tract infection (subject A1): Severity” value (healthy volunteers; day noted 2-30) was 2, the “AE Urinary tract infection (subject A1): Study Drug related” value (healthy volunteers; day noted 2-30) was 1 and the “AE Occipital and frontal headache (subject A6): Severity” value (healthy volunteers; day noted 4) was 2. The “AE Occipital and frontal headache (subject A6): Study Drug related” value (healthy volunteers; day noted 4) was 1, the “AE Dry cough (subject A4): Severity” value (healthy volunteers; day noted 4 (CRF entry error)) was 1 and the “AE Dry cough (subject A4): Study Drug related” value (healthy volunteers; day noted 4 (CRF entry error)) was 3. The “AE Hot coffee burn in hand and right forearm (subject A3): Severity” value (healthy volunteers; day noted 7) was 1, the “AE Hot coffee burn in hand and right forearm (subject A3): Study Drug related” value (healthy volunteers; day noted 7) was 1 and the “AE Body pain (subject A5): Severity” value (healthy volunteers; day noted 30) was 1. The “AE Body pain (subject A5): Study Drug related” value (healthy volunteers; day noted 30) was 1, the IC50 (CYP2E1) was 28 µM and the IC50 (CYP1A2) was over 100 µM.
